# What was measured:
# [1] = molecular target: T1, PROBABLE TRANSMEMBRANE CARBONIC ANHYDRASE (CARBONATE DEHYDRATASE) (CARBONIC DEHYDRATASE) (Mycobacterium tuberculosis, UniProt P96878)
# T1 sequence (P96878 whole entry): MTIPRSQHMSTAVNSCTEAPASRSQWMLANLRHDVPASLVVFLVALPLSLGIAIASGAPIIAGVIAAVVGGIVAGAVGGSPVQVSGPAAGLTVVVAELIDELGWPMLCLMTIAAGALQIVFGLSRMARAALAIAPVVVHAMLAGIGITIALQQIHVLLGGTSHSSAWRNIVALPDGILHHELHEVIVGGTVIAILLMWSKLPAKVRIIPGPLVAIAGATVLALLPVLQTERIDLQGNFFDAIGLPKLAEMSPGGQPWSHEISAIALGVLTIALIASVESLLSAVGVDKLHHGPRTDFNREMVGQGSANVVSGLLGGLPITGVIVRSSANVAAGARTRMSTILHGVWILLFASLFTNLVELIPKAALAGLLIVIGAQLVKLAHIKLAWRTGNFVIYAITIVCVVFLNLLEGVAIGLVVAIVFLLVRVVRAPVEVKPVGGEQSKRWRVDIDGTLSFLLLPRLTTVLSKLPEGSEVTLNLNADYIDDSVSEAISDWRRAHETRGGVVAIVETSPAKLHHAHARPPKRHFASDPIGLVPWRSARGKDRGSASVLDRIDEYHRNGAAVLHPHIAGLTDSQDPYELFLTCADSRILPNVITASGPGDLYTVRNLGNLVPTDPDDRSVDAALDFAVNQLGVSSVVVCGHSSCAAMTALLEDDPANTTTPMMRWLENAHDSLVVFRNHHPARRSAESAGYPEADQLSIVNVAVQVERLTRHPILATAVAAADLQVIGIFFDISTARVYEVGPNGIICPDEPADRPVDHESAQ
# Description: Inhibition of Mycobacterium tuberculosis recombinant carbonic anhydrase Rv3273 by stopped flow CO2 hydration assay
# [2] = molecular target: T2, Beta-carbonic anhydrase 1 (Mycobacterium tuberculosis, UniProt P9WPJ7)
# T2 sequence (P9WPJ7 whole entry): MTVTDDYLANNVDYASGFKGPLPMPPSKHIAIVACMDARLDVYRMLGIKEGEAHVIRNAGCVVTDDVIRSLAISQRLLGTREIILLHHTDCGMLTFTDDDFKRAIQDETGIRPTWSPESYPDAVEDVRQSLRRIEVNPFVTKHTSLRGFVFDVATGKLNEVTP
# Carbonic anhydrase 2 = Carbonic anhydrase 2 (Homo sapiens, UniProt P00918)
# Description: Inhibition of human cloned full length carbonic anhydrase 2 by stopped flow CO2 hydration assay
Structure (SMILES),Ki [1],Ki [2],Ki (Carbonic anhydrase 2)
Nc1ccc(/N=N/c2cccc(S(N)(=O)=O)c2)cc1,8.68 µM,7 µM,
Nc1ccc(/N=N/c2ccc(S(N)(=O)=O)cc2)cc1,8.78 µM,7.2 µM,
CNc1ccc(/N=N/c2ccc(S(N)(=O)=O)cc2)cc1,9.18 µM,7.69 µM,0.093 µM
CN(CS(=O)(=O)O)c1ccc(/N=N/c2cccc(S(N)(=O)=O)c2)cc1,7.4 µM,63 µM,
Nc1ccc(S(=O)(=O)NCCc2ccc(S(N)(=O)=O)cc2)cc1,0.17 µM,,
CN(CS(=O)(=O)O)c1ccccc1 [SODIUM(METHYL(PHENYL)AMINO)METHANESULFONATE],9.11 µM,7.86 µM,
NS(=O)(=O)c1ccc(/N=N/c2ccc(O)cc2)cc1,12.4 µM,9.27 µM,
NS(=O)(=O)c1ccc(/N=N/c2ccc(NCS(=O)(=O)O)cc2)cc1,8.9 µM,6.78 µM,
Nc1ccc(S(=O)(=O)NCc2ccc(S(N)(=O)=O)cc2)cc1,2.21 µM,,
CN(C)c1ccc(/N=N/c2cccc(S(N)(=O)=O)c2)cc1,9.36 µM,7.54 µM,
O=S(=O)(O)CNc1ccccc1 [SODIUM PHENYLAMINOMETHANESULFONATE],8.9 µM,8.67 µM,
CCN[C@H]1CN(CCCOC)S(=O)(=O)c2sc(S(N)(=O)=O)cc21 [BRINZOLAMIDE],0.201 µM,,
NS(=O)(=O)c1cccc(/N=N/c2ccc(NCS(=O)(=O)O)cc2)c1,9.45 µM,7.51 µM,
CN(CS(=O)(=O)O)c1ccc(/N=N/c2ccc(S(N)(=O)=O)cc2)cc1,9.03 µM,8.71 µM,
CC(=O)Nc1cc2c(O)c(/N=N/c3ccc(S(N)(=O)=O)cc3)c(S(=O)(=O)O)cc2cc1S(=O)(=O)O [PRONTOCIL],0.148 µM,0.126 µM,
NCc1ccc(S(N)(=O)=O)cc1 [MAFENIDE],7.33 µM,,
CN(C)c1ccc(/N=N/c2ccc(S(N)(=O)=O)cc2)cc1,30.7 µM,6.86 µM,0.638 µM
NS(=O)(=O)c1cccc(/N=N/c2ccc(O)cc2)c1,9.23 µM,8.97 µM,0.106 µM

# — ChEMBL document CHEMBL1155354, “Carbonic anhydrase inhibitors. Inhibition of the Rv1284 and Rv3273 beta-carbonic anhydrases from Mycobacterium tuberculosis with diazenylbenzenesulfonamides” (Bioorg Med Chem Lett, 2009)
